The test has as its target Sphingosine 1-phosphate receptor 1 (Homo sapiens, UniProt P21453). The test can be described thus: Binding Assay: Membranes were prepared from CHO cells expressing human S1P1. Cells pellets (1x10^9 cells/pellet) were suspended in buffer containing 20 mM HEPES (4-(2-hydroxyethyl)-1-piperazineethanesulfonic acid), pH 7.5, 50 mM NaCl, 2 mM EDTA (Ethylenediaminetetraacetic acid) and Protease Inhibitor cocktail (Roche), and disrupted on ice using the Polytron homogenizer. The homogenate was centrifuged at 20,000 rpm (48,000 g) and the supernatant was discarded. The membrane pellets were resuspended in buffer containing 50 mM HEPES, pH 7.5, 100 mM NaCl, 1 mM MgCl2, 2 mM EDTA and stored in aliquots at -80° C. after protein concentration determination.Membranes (2 ug/well) and 0.03 nM final concentration of 33P-S1P ligand (1 mCi/ml, Perkin elmer or American Radiolabeled Chemicals) diluted in assay buffer (50 mM HEPES, pH7.4, 5 mM MgCl2, 1 mM CaCl2, 0.5% fatty acid free BSA (bovine serum albumin), 1 mM NaF) were added to the compound plates (384 Falcon v-bottom plate (0.5 ul/well in a 11 point, 3-fold dilution). Binding was performed for 45 minutes at room temperature, terminated by collecting the membranes onto 384-well Millipore FB filter plates, and radioactivity was measured by TOPCOUNT. The competition data of the test compounds over a range of concentrations was plotted as percentage inhibition of radioligand specific binding.

Broadly, the IC50 is the concentration needed to halve the response being measured.

SMILES strings stand for the structures. A value given as a limit tells only on which side of the number the result lay.

Chain of Sphingosine 1-phosphate receptor 1 (P21453 whole entry): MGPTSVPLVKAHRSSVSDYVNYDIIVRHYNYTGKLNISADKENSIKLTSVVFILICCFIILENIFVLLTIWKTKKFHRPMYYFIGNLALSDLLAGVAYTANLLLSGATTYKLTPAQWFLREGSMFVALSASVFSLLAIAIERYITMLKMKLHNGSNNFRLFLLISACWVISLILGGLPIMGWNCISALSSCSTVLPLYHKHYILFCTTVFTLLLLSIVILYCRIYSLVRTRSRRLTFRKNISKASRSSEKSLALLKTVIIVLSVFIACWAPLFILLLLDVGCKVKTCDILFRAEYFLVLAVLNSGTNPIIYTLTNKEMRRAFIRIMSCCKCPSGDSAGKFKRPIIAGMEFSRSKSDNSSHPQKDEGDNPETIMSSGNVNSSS

Turning to `CCCCCC[C@H]1Cc2ccc([C@@H]3CC[C@](N)(COP(=O)(O)O)C3)cc2CO1`, the IC50 is less than 10 nM.

The values above are taken from ChEMBL document CHEMBL5725202, “Substituted bicyclic compounds” (2016).
